Each structure is given as a SMILES string.

The values below come from patent US9663460B2, “Sulfur derivatives as chemokine receptor modulators” (ALLERGAN, INC., priority 2010, dated 2017).

CCR2, sequence (P41597 whole entry, species assumed): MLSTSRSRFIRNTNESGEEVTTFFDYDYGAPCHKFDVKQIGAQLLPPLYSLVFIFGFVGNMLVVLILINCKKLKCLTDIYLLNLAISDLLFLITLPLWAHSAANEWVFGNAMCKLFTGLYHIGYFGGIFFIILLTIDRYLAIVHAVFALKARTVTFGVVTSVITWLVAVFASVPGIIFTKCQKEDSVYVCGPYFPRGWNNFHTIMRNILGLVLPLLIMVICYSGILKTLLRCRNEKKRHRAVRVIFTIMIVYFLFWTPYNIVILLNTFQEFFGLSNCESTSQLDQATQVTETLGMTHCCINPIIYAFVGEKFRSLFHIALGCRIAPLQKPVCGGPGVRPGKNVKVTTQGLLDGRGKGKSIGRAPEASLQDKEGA

This assay concerns the target CCR2 (Homo sapiens (Human), UniProt P41597). As to the kind of experiment: Calcium activity assayed on the FLIPR Tetra in HEK-Gqi5 cells stably expressing CCR2. In kind it is cell-based. The note with it: FLIPR Tetra calcium assay.
In the case of `O=S(=O)(Cc1cccnc1)c1ccc(Cl)cc1NS(=O)(=O)c1cc2ccccc2o1` [N-{5-chloro-2-[(pyridin-3-ylmethyl)sulfonyl]phenyl}-1-benzofuran-2-sulfonamide], the “CCR2 % ANTAGONISM” value is 93% and the IC50 came to 32 nM.

`O=S(=O)(Nc1cc(Cl)ccc1SCc1cccnc1)c1cc2ccccc2o1` [N-{5-chloro-2-[(pyridin-3-ylmethyl)thio]phenyl}-1-benzofuran-2-sulfonamide]: the “CCR2 % ANTAGONISM” value turned out to be 97% and the IC50 is 22 nM.

For the compound `O=S(=O)(Nc1cc(Cl)ccc1[S+]([O-])Cc1ncccn1)c1cc2ccccc2o1` (stereo not drawn) [N-{5-chloro-2-[(pyrimidin-2-ylmethyl)sulfinyl]phenyl}-1-benzofuran-2-sulfonamide], the “CCR2 % ANTAGONISM” value came to 104% and the IC50 was determined as 506 nM. With `O=S(=O)(Cc1ncccn1)c1ccc(Cl)cc1NS(=O)(=O)c1cc2ccccc2o1` [N-{5-chloro-2-[(pyrimidin-2-ylmethyl)sulfonyl]phenyl}-1-benzofuran-2-sulfonamide], the “CCR2 % ANTAGONISM” value is listed as 104% and the IC50 was determined as 151 nM. On the same counts, the results for `O=S(=O)(Nc1cc(Cl)ccc1SCc1ncccn1)c1cc2ccccc2o1` [N-{5-chloro-2-[(pyrimidin-2-ylmethyl)thio]phenyl}-1-benzofuran-2-sulfonamide] are 100% and 549 nM. As to `O=S(=O)(Nc1cc(Cl)ccc1[S+]([O-])C(F)(F)F)c1cc2ccccc2o1` (stereo not drawn) [N-{5-chloro-2-[(trifluoromethyl)sulfinyl]phenyl}-1-benzofuran-2-sulfonamide], the “CCR2 % ANTAGONISM” value is given as 89% and the IC50 is 19 nM.

Consider `O=S(=O)(Nc1cc(Cl)ccc1S(=O)(=O)C(F)(F)F)c1cc2ccccc2o1` [N-{5-chloro-2-[(trifluoromethyl)sulfonyl]phenyl}-1-benzofuran-2-sulfonamide], for which the “CCR2 % ANTAGONISM” value turned out to be 91% and the IC50 is 73 nM. As to `O=S(=O)(Nc1cc(Cl)ccc1SC(F)(F)F)c1cc2ccccc2o1` [N-{5-chloro-2-[(trifluoromethyl)thio]phenyl}-1-benzofuran-2-sulfonamide], the “CCR2 % ANTAGONISM” value was found to be 92% and the IC50 is 333 nM. As for `O=[N+]([O-])c1cccc(C[S+]([O-])c2ccc(F)cc2NS(=O)(=O)c2cc3ccccc3o2)c1` (stereo not drawn) [N-{5-fluoro-2-[(3-nitrobenzyl)sulfinyl]phenyl}-1-benzofuran-2-sulfonamide], the “CCR2 % ANTAGONISM” value is recorded as 96% and the IC50 is 314 nM. As to `O=[N+]([O-])c1cccc(CS(=O)(=O)c2ccc(F)cc2NS(=O)(=O)c2cc3ccccc3o2)c1` [N-{5-fluoro-2-[(3-nitrobenzyl)sulfonyl]phenyl}-1-benzofuran-2-sulfonamide], the “CCR2 % ANTAGONISM” value is on record as 81% and the IC50 stood at 693 nM. In the case of `COc1ccc([S+]([O-])Cc2cccc([N+](=O)[O-])c2)c(NS(=O)(=O)c2cc3ccccc3o2)c1` (stereo not drawn) [N-{5-methoxy-2-[(3-nitrobenzyl)sulfinyl]phenyl}-1-benzofuran-2-sulfonamide], the “CCR2 % ANTAGONISM” value stood at 84% and the IC50 amounted to 845 nM. Turning to `CCOC(=O)C[S+]([O-])c1ccc(Cl)cc1NS(=O)(=O)c1ccc(Cl)c(C(F)(F)F)c1` (stereo not drawn) [ethyl {[4-chloro-2-({[4-chloro-3-(trifluoromethyl)phenyl]sulfonyl}amino)phenyl]sulfinyl}acetate], the “CCR2 % ANTAGONISM” value is 79% and the IC50 came out at 141 nM. As for `COC(=O)CC[S+]([O-])c1ccc(Cl)cc1NS(=O)(=O)c1ccc(Cl)c(C(F)(F)F)c1` (stereo not drawn) [methyl 3-{[4-chloro-2-({[4-chloro-3-(trifluoromethyl)phenyl]sulfonyl}amino)phenyl]sulfinyl}propanoate], the “CCR2 % ANTAGONISM” value was 82% and the IC50 worked out at 108 nM. On the same counts, the results for `CC(C)(C)OC(=O)Nc1nc(C[S+]([O-])c2ccc(Cl)cc2NS(=O)(=O)c2cc3ccccc3o2)cs1` (stereo not drawn) [tert-butyl {4-[({2-[(1-benzofuran-2-ylsulfonyl)amino]-4-chlorophenyl}sulfinyl)methyl]-1,3-thiazol-2-yl}carbamate] are 101% and 2400 nM. For the compound `CC(C)(C)OC(=O)Nc1nc(CS(=O)(=O)c2ccc(Cl)cc2NS(=O)(=O)c2cc3ccccc3o2)cs1` [tert-butyl {4-[({2-[(1-benzofuran-2-ylsulfonyl)amino]-4-chlorophenyl}sulfonyl)methyl]-1,3-thiazol-2-yl}carbamate], the “CCR2 % ANTAGONISM” value is reported as 72%. For `CC(C)(C)OC(=O)Nc1cc(CS(=O)(=O)c2ccc(Cl)cc2NS(=O)(=O)c2cc3ccccc3o2)cc[n+]1[O-]` [tert-butyl {4-[({2-[(1-benzofuran-2-ylsulfonyl)amino]-4-chlorophenyl}sulfonyl)methyl]-1-oxidopyridin-2-yl}carbamate], the “CCR2 % ANTAGONISM” value came out at 29% and the IC50 amounted to 2870 nM. `CC(C)(C)OC(=O)Nc1cc(CS(=O)(=O)c2ccc(Cl)cc2NS(=O)(=O)c2cc3ccccc3o2)ccn1` [tert-butyl {4-[({2-[(1-benzofuran-2-ylsulfonyl)amino]-4-chlorophenyl}sulfonyl)methyl]pyridin-2-yl}carbamate]: the “CCR2 % ANTAGONISM” value is on record as 76% and the half-inhibitory concentration (IC50) is 2260 nM. As to `CC(C)(C)OC(=O)Nc1nc(CSc2ccc(Cl)cc2NS(=O)(=O)c2cc3ccccc3o2)cs1` [tert-butyl {4-[({2-[(1-benzofuran-2-ylsulfonyl)amino]-4-chlorophenyl}thio)methyl]-1,3-thiazol-2-yl}carbamate], the “CCR2 % ANTAGONISM” value amounted to 28% and the IC50 is 2420 nM.

As for `CC(C)(C)OC(=O)Nc1cc(CSc2ccc(Cl)cc2NS(=O)(=O)c2cc3ccccc3o2)ccn1` [tert-butyl {4-[({2-[(1-benzofuran-2-ylsulfonyl)amino]-4-chlorophenyl}thio)methyl]pyridin-2-yl}carbamate], the “CCR2 % ANTAGONISM” value came to 40% and the IC50 turned out to be 2000 nM. Turning to `CC(C)(C)OC(=O)Nc1cccc(C[S+]([O-])c2ccc(Cl)cc2NS(=O)(=O)c2cc3ccccc3o2)n1` (stereo not drawn) [tert-butyl {6-[({2-[(1-benzofuran-2-ylsulfonyl)amino]-4-chlorophenyl}sulfinyl)methyl]pyridin-2-yl}carbamate], the “CCR2 % ANTAGONISM” value is 82% and the IC50 was 527 nM.

For orientation: IC50 means the point on the concentration scale where inhibition reaches its midpoint.
